We go through four compounds from patent publication US20120277161A1, “INHIBITION OF MULTIPLE CELL ACTIVATION PATHWAYS” (INTER-K PTY LIMITED, priority 2009, published 2012).

What all share (format): biochemical
The target in one assay is PI3K P110δ (Homo sapiens, UniProt O00329). Description: PI3K HTRF activity assay. The settings on record: dendrimer conc. 1 μM; read-out: Percentage (%) kinase inhibition PI3K P110δ. The procedure:
(§1) In a final reaction volume of 20 μL, the test PI3K is incubated in assay buffer containing 10 μM phosphatidylinositol-4,5-bisphosphate and MgATP. The reaction is initiated by the addition of the MgATP mix. After incubation for 30 minutes at room temperature, the reaction is stopped by the addition of 5 μL of stop solution containing EDTA and biotinylated phosphatidylinositol-3,4,5-trisphosphate. Finally, 5 μL of detection buffer is added (containing europium-labelled anti-GST monoclonal antibody, GST-tagged GRP1 PH domain and streptavidin-allophycocyanin). The test plate is then read in time-resolved fluorescence mode and the homogenous time-resolved fluorescence (HTRF) signal is determined according to the formula HTRF=10000×(Em665 nm/Em620 nm).

Another assay has as its target PI3K beta (Homo sapiens, UniProt P42338). Put plainly: PI3K HTRF activity assay. The settings on record: dendrimer conc. 1 μM; read-out: Percentage (%) kinase inhibition PI3K P110β. The procedure: as §1
A general note: In TR-FRET formats the signal depends on donor and acceptor labels being close together.

Another assay addresses MEK1 (h) (Homo sapiens, UniProt Q02750). Description: MEK1 kinase activity assay. As to conditions: dendrimer conc. 1 μM; read-out: Percentage (%) kinase inhibition MEK1. On the procedure: The reaction is initiated by the addition of the MgATP. After incubation for 40 minutes at room temperature, 5 μL of this incubation mix is used to initiate an ERK2 (m) assay.
The target of another assay is c-RAF (h) (Homo sapiens, UniProt P04049). Description: c-RAF kinase activity assay. The settings on record: dendrimer conc. 1 μM; read-out: Percentage (%) kinase inhibition c-RAF. On the procedure:
In a final reaction volume of 25 μL, c-RAF (h) (5-10 mU) is incubated with 25 mM Tris pH 7.5, 0.02 mM EGTA, 0.66 mg/mL myelin basic protein, 10 mM MgAcetate and [γ-33P-ATP] (specific activity approx. 500 cpm/pmol, concentration as required). The reaction is initiated by the addition of the MgATP mix. After incubation for 40 minutes at room temperature, the reaction is stopped by the addition of 5 μL of a 3% phosphoric acid solution. 10 μL of the reaction is then spotted onto a P30 filtermat and washed three times for 5 minutes in 75 mM phosphoric acid and once in methanol prior to drying and scintillation counting.

The target in another assay is PKB beta (Homo sapiens, UniProt P31751). Put plainly: PKB kinase activity assay. As to conditions: dendrimer conc. 1 μM; read-out: Percentage (%) kinase inhibition PKB beta. The procedure:
(§2) In a final reaction volume of 25 μL, PKB(h) (5-10 mU) is incubated with 8 mM MOPS pH 7.0, 0.2 mM EDTA, 30 μM GRPRTSSFAEGKK (SEQ ID No. 26), 10 mM MgAcetate and [γ-33P-ATP] (specific activity approx. 500 cpm/pmol, concentration as required). The reaction is initiated by the addition of the MgATP mix. After incubation for 40 minutes at room temperature, the reaction is stopped by the addition of 5 μL of a 3% phosphoric acid solution. 10 μL of the reaction mixture is then spotted onto a P30 filtermat and washed three times for 5 minutes in 75 mM phosphoric acid and once in methanol prior to drying and scintillation counting.

For another assay, the target named is PKB gamma (Homo sapiens, UniProt Q9Y243). Put plainly: PKB kinase activity assay. The settings on record: dendrimer conc. 1 μM; read-out: Percentage (%) kinase inhibition PKB gamma. On the procedure: as §2
Chain of PKB gamma (Q9Y243 whole entry): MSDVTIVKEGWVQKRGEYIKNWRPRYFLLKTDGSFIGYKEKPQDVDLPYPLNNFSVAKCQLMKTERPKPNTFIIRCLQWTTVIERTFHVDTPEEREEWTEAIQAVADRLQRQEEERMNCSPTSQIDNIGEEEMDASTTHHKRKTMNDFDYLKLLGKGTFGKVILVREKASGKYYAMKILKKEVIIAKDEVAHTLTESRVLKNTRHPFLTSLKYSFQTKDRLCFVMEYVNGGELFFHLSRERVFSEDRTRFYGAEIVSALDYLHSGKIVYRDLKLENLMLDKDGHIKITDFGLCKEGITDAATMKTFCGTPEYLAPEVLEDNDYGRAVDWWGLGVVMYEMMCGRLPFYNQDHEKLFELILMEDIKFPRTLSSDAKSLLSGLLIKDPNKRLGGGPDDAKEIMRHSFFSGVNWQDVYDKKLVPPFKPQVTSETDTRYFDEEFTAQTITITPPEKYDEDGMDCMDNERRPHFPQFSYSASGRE
For a further assay, the target named is PKC beta II (Homo sapiens, UniProt P05771). Put plainly: PKC kinase activity assay. As to conditions: dendrimer conc. 1 μM; read-out: Percentage (%) kinase inhibition PKC beta II. On the procedure:
(§3) In a final reaction volume of […] PKC kinase (h) (5-10 mU) is incubated with 20 mM HEPES pH 7.4, 0.03% Triton X-100, […], 0.1 mg/mL phosphatidylserine, 10 μg/mL diacylglycerol, 0.1 mg/mL histone H1 or 50 μM of the peptide ERMRPRKRQGSVRRRV (SEQ ID No. 20), 10 mM MgAcetate and [γ-33P-ATP] (specific activity approx. 500 cpm/pmol, concentration as required). The reaction is initiated by the addition of the MgATP mix. After incubation for 40 minutes at room temperature, the reaction is stopped by the addition of 5 μL of a 3% phosphoric acid solution. 10 μL of the reaction is then spotted onto a P30 filtermat and washed three times for 5 minutes in 75 mM phosphoric acid and once in methanol prior to drying and scintillation counting.

For a further assay, the target named is PKC beta I (Homo sapiens, UniProt P05771). Put plainly: PKC kinase activity assay. The settings on record: dendrimer conc. 1 μM; read-out: Percentage (%) kinase inhibition PKC beta I. The procedure:
as §3

A further assay has as its target PKC alpha (Homo sapiens, UniProt P17252). Description: PKC kinase activity assay. The settings on record: dendrimer conc. 1 μM; read-out: Percentage (%) kinase inhibition PKC alpha. The procedure: as §3
The target of a further assay is c-SRC (h) (Homo sapiens, UniProt P12931). Description: c-Src kinase activity assay (cell-free, 33P-ATP). As to conditions: peptide 50 μM, relative to control. On the procedure: as §2, with “μL, c-SRC (h)” for “μL, PKB(h)”, “EDTA, 250” for “EDTA, 30”, “μM KVEKIGEGTYGVVYK” for “μM GRPRTSSFAEGKK”, “No. 19) (Cdc2 peptide),” for “No. 26),”, “reaction” for “reaction mixture”

Chain of PI3K beta (P42338 whole entry, species assumed): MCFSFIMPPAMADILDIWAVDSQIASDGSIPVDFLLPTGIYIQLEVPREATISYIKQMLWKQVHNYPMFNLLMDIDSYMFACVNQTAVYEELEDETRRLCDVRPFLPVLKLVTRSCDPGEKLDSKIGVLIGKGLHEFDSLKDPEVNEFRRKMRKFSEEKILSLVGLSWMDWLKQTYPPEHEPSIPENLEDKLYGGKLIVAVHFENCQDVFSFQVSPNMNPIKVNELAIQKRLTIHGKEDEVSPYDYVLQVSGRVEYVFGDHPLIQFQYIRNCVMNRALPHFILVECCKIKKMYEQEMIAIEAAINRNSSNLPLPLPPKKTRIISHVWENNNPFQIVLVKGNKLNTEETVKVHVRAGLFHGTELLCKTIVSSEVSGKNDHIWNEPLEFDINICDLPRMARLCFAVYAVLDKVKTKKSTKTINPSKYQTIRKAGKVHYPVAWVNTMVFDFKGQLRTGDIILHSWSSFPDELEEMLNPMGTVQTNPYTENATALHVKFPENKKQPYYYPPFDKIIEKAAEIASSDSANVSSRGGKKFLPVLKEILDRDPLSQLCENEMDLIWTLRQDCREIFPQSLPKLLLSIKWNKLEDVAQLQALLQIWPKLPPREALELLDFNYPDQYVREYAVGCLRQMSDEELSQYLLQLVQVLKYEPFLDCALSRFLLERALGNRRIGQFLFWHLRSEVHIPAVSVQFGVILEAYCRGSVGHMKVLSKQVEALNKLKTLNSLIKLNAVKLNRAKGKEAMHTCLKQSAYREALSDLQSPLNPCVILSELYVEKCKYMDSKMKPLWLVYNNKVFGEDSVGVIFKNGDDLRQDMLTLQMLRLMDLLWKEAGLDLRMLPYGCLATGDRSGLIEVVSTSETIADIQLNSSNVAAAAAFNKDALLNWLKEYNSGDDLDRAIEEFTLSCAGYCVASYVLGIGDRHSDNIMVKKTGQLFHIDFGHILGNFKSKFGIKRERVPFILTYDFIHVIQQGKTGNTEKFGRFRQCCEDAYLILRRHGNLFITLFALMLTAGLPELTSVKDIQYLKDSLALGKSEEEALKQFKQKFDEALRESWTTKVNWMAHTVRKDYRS
Chain of PI3K beta (P27986 whole entry partner, species assumed): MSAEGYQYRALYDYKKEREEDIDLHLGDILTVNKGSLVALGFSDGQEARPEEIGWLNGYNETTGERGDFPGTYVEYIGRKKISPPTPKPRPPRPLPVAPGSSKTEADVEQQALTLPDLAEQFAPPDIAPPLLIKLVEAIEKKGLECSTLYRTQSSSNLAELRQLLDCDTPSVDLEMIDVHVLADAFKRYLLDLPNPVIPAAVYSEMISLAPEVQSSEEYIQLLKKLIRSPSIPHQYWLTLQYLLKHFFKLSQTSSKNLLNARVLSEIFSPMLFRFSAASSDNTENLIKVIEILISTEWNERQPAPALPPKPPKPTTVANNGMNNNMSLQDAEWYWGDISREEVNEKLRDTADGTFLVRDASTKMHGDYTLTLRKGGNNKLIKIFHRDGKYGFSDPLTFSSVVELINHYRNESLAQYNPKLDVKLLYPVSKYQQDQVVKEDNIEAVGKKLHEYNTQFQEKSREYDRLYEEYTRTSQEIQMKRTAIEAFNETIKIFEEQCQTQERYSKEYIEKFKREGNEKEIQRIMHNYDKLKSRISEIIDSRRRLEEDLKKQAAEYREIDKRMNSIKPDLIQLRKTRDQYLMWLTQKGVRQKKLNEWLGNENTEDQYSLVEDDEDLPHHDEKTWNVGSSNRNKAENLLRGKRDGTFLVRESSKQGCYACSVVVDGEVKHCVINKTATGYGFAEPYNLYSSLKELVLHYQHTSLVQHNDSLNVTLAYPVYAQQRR
Chain of MEK1 (h) (Q02750 whole entry): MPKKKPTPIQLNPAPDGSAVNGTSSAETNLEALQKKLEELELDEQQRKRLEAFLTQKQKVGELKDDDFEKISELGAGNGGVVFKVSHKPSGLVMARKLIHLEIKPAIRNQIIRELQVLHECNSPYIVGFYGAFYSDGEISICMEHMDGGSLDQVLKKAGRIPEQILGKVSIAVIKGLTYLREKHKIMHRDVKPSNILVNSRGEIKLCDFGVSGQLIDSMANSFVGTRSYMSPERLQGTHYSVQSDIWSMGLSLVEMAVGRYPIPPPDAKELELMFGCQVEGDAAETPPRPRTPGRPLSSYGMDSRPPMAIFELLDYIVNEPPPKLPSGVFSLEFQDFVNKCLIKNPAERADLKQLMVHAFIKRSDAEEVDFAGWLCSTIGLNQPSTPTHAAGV
Chain of PKC beta II (P05771 1-673 isoform P05771-2): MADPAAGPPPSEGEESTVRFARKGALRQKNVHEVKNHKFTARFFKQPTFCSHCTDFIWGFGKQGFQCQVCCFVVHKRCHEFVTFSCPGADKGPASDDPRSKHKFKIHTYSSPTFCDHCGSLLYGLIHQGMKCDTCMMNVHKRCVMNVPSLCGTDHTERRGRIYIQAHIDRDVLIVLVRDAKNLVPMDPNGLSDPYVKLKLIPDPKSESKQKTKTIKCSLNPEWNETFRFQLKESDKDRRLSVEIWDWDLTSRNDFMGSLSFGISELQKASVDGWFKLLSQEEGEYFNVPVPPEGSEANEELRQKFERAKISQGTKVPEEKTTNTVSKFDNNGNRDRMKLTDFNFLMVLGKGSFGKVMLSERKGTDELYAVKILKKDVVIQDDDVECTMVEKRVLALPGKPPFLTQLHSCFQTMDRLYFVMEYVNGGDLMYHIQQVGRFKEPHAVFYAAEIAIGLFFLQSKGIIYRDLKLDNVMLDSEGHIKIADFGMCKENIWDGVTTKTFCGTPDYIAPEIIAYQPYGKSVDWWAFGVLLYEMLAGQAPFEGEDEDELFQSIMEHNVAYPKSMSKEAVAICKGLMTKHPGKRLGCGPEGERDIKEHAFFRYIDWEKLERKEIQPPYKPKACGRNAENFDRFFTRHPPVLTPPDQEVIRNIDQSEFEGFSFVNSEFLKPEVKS
Chain of PKB beta (P31751 whole entry): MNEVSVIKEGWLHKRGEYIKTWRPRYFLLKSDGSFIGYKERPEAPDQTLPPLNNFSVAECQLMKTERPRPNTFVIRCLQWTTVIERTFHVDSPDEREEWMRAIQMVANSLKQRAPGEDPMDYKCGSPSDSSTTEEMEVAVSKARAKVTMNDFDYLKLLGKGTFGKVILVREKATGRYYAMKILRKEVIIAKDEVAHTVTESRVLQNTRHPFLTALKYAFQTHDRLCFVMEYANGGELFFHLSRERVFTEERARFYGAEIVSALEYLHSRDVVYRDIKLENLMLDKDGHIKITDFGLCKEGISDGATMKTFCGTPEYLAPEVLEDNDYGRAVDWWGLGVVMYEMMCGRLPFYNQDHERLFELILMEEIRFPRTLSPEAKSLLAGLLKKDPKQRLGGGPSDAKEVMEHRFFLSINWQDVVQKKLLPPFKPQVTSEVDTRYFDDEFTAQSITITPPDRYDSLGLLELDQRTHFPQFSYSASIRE
Chain of PKC beta I (P05771 whole entry): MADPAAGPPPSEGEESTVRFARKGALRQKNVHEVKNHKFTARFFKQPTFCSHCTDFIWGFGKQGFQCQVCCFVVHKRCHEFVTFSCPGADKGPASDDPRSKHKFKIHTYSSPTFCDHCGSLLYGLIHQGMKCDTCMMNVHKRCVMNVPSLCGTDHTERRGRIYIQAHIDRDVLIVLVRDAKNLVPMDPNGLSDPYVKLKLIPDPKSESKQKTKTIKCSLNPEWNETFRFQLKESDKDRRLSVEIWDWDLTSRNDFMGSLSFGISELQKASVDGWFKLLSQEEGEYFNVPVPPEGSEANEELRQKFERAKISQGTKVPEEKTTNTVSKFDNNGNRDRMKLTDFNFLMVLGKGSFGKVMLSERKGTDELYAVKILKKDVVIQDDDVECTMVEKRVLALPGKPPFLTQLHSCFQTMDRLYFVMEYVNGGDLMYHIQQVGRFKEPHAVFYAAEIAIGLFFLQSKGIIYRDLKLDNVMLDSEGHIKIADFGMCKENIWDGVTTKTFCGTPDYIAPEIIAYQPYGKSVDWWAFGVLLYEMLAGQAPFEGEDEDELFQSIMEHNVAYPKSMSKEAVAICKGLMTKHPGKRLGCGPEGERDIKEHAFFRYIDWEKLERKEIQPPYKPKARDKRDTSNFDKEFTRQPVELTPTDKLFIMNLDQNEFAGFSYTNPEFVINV

The inhibition is the relative decrease from the control value, in per cent. Turning to `CC(C)C[C@@H](NC(=O)[C@H]1CCCN1C(=O)[C@@H](CC(N)=O)NC(=O)[C@@H](CCCNC(=N)N)NC(=O)[C@@H](C)NC(=O)[C@@H](CCCNC(=N)N)NC(=O)[C@@H](CO)NC(=O)[C@H](N)CCCNC(=N)N)C(=O)N[C@H](Cc1ccc(O)cc1)C(=O)N[C@H](CCCNC(=N)N)C(=O)NCCCC[C@H](NC(=O)[C@H](CCCCNC(=O)[C@H](CCCCNC(=O)[C@@H](CCCNC(=N)N)NC(=O)[C@@H](Cc1ccc(O)cc1)NC(=O)[C@@H](CC(C)C)NC(=O)[C@H]1CCCN1C(=O)[C@@H](CC(N)=O)NC(=O)[C@@H](CCCNC(=N)N)NC(=O)[C@@H](C)NC(=O)[C@@H](CCCNC(=N)N)NC(=O)[C@@H](CO)NC(=O)[C@H](N)CCCNC(=N)N)NC(=O)[C@@H](CCCNC(=N)N)NC(=O)[C@@H](Cc1ccc(O)cc1)NC(=O)[C@@H](CC(C)C)NC(=O)[C@H]1CCCN1C(=O)[C@@H](CC(N)=O)NC(=O)[C@@H](CCCNC(=N)N)NC(=O)[C@@H](C)NC(=O)[C@@H](CCCNC(=N)N)NC(=O)[C@@H](CO)NC(=O)[C@H](N)CCCNC(=N)N)NC(=O)[C@H](CCCCNC(=O)[C@@H](CCCNC(=N)N)NC(=O)[C@@H](Cc1ccc(O)cc1)NC(=O)[C@@H](CC(C)C)NC(=O)[C@H]1CCCN1C(=O)[C@@H](CC(N)=O)NC(=O)[C@@H](CCCNC(=N)N)NC(=O)[C@@H](C)NC(=O)[C@@H](CCCNC(=N)N)NC(=O)[C@@H](CO)NC(=O)[C@H](N)CCCNC(=N)N)NC(=O)[C@@H](CCCNC(=N)N)NC(=O)[C@@H](Cc1ccc(O)cc1)NC(=O)[C@@H](CC(C)C)NC(=O)[C@H]1CCCN1C(=O)[C@@H](CC(N)=O)NC(=O)[C@@H](CCCNC(=N)N)NC(=O)[C@@H](C)NC(=O)[C@@H](CCCNC(=N)N)NC(=O)[C@@H](CO)NC(=O)[C@H](N)CCCNC(=N)N)C(=O)NCCCC[C@H](NC(=O)[C@H](CCCCNC(=O)[C@@H](CCCNC(=N)N)NC(=O)[C@@H](Cc1ccc(O)cc1)NC(=O)[C@@H](CC(C)C)NC(=O)[C@H]1CCCN1C(=O)[C@@H](CC(N)=O)NC(=O)[C@@H](CCCNC(=N)N)NC(=O)[C@@H](C)NC(=O)[C@@H](CCCNC(=N)N)NC(=O)[C@@H](CO)NC(=O)[C@H](N)CCCNC(=N)N)NC(=O)[C@H](CCCCNC(=O)[C@H](CCCCNC(=O)[C@@H](CCCNC(=N)N)NC(=O)[C@@H](Cc1ccc(O)cc1)NC(=O)[C@@H](CC(C)C)NC(=O)[C@H]1CCCN1C(=O)[C@@H](CC(N)=O)NC(=O)[C@@H](CCCNC(=N)N)NC(=O)[C@@H](C)NC(=O)[C@@H](CCCNC(=N)N)NC(=O)[C@@H](CO)NC(=O)[C@H](N)CCCNC(=N)N)NC(=O)[C@@H](CCCNC(=N)N)NC(=O)[C@@H](Cc1ccc(O)cc1)NC(=O)[C@@H](CC(C)C)NC(=O)[C@H]1CCCN1C(=O)[C@@H](CC(N)=O)NC(=O)[C@@H](CCCNC(=N)N)NC(=O)[C@@H](C)NC(=O)[C@@H](CCCNC(=N)N)NC(=O)[C@@H](CO)NC(=O)[C@H](N)CCCNC(=N)N)NC(=O)[C@H](CCCCNC(=O)[C@@H](CCCNC(=N)N)NC(=O)[C@@H](Cc1ccc(O)cc1)NC(=O)[C@@H](CC(C)C)NC(=O)[C@H]1CCCN1C(=O)[C@@H](CC(N)=O)NC(=O)[C@@H](CCCNC(=N)N)NC(=O)[C@@H](C)NC(=O)[C@@H](CCCNC(=N)N)NC(=O)[C@@H](CO)NC(=O)[C@H](N)CCCNC(=N)N)NC(=O)[C@@H](CCCNC(=N)N)NC(=O)[C@@H](Cc1ccc(O)cc1)NC(=O)[C@@H](CC(C)C)NC(=O)[C@H]1CCCN1C(=O)[C@@H](CC(N)=O)NC(=O)[C@@H](CCCNC(=N)N)NC(=O)[C@@H](C)NC(=O)[C@@H](CCCNC(=N)N)NC(=O)[C@@H](CO)NC(=O)[C@H](N)CCCNC(=N)N)C(=O)NCCC(N)=O`, the inhibition at 1 µM on PI3K P110δ amounted to 61%; on PI3K beta, 24%; on MEK1 (h) it was 95%; at c-RAF (h) it was 85%; on PKB beta, 87%; at PKB gamma, 97%. The values for the inhibition at 1 µM on PKC beta II, on PKC beta I and on PKC alpha were 77%, 79% and 53%, respectively.

As for NPLYR [Peptide 8], the “% Inhibition of control, c-Src tyrosine kinase activity” value (“% Inhibition of control” for short) with c-SRC (h) is “negligible or no c-Src inhibitory activity”.

With RSKAK [Peptide 6], in the assay with c-SRC (h), the “% Inhibition of control” value was “negligible or no c-Src inhibitory activity”.

Regarding WQTGT [Peptide 7], in the assay with c-SRC (h), the “% Inhibition of control” value was “No inhibitory activity”.
